Experimental findings from patent US10905757B2, “Cross-reactive T cell epitopes of HIV, SIV, and FIV for vaccines in humans and cats” (priority 2012, dated 2021) are described below.

Entries after “also recorded” stand apart in the source; their conditions may differ.

In assay [1] the test system is FIV infection of naïve cat PBMC. Nature of the assay: In vitro FIV enhancing/inhibitory (E/I) assay in PBMC from naïve SPF cats (RT titer). The format is cell-based. Particulars: PBMC from naïve cats. On the procedure: FIG. 35. FIV-enhancing versus inhibitory epitopes on peptides and MAPs used in pilot MAP Study. […] Abbreviation: MAP1 plus MAP2 mix (MAP1+2).
FIG. 36A and 36B. FIV/HIV-1 enhancing versus inhibitory epitopes. […] Four epitope peptides were tested in an in vivo efficacy study with prototype vaccine prime and MAP boosts against pathogenic FIV challenge (see MAP section).
To test the possibility that Fp4-3 peptide may be enhancing FIV infection, we performed an in vitro FIV enhancing/inhibitory analysis with all MAP peptides and immunogens. […]. Since MAP2 consisted of peptides FRT3-3 and FRT3-4 with a natural overlap (FIG. 34), such overlap may have blocked the enhancing activity of peptide FRT3-3 while allowing the inhibitory activity of peptide FRT3-4. […] Moreover, none of the MAP vaccinated cats had early detection or enhancement in viral load compared to the control cats. Perhaps, the strong immunity generated by the MAP2 has blocked the enhancing activity of the MAP1 when boosted together (Group 1, Table 3). To test this possibility, in vitro study is currently undergoing to evaluate whether MAP2 can block FIV enhancing activity of MAP1. Furthermore, more cats will be vaccinated with MAP 1b and MAP2 to determine the levels of cytotoxins generated to peptides Fp14-1, FRT3-3 and FRT3-4. Since these peptides have induced CTL-associated cytotoxin expression in T cells from HIV^+ subjects (FIGS. 31A-31B; FIG. 5 in (Sanou et al. 2013)), these EC peptides may also mediate their in vivo effects by inducing anti-FIV specific CTL activity.
However, only peptide Fp4-3 correlated with the in vitro enhancement induced by MAP1. Since the in vitro E/I assay uses PBMC from naïve specific pathogen free (SPF) cats, it is unlikely that the in vitro stimulation of anti-FIV CTLs occurred in the culture and eliminated the infected cells. More likely, these enhancing or inhibitory peptides induced cytokines (enhancement: IFNγ, TNFα, GM-CSF; inhibition: IFNα, IL10), chemokines (inhibition: MIP1α, MIP1β, SDF-1, RANTES), or cellular restriction factors (inhibition: Trim5α, APOBEC3g) that either enhanced or inhibited FIV/HIV-1 infection. […] IFNγ is produced during inflammatory responses to HIV-1 infection (Ipp and Zemlin 2013). Thus, high levels of antiviral cellular immune responses are needed while minimizing both non-specific and viral-specific activation of CD4^+ T cells which can enhance viral replication (Lane 2010). Removal of the enhancing epitopes on FIV and HIV-1 immunogens will be critical to produce an effective HIV-1 vaccine. To accomplish this goal, we will design a vaccine based on antiviral epitopes directed at inducing viral-specific CD4^+ CTLs, CD8^+ CTLs and polyfunctional T cells, and identifying viral enhancing epitopes to remove from vaccine candidates.

Assay [2] relates to PBMC from FIV-vaccinated cats. Nature of the assay: IFNγ ELISpot, PBMC from FIV-vaccinated cats (prototype vaccine, or prime plus MAP boosts). The format is cell-based, cat. Particulars: for IFNγ (SFU): prime 1x IWV, post-second MAP boost, peptide or MAP as culture stimulant, >50 positive. From the text: (§1) Peptide Fp4-3 (left), peptide Fp14-1 (middle) and MAP1 [right] were culture stimulants. IL2 and IFNγ ELISpot results of >50 spot forming units (SFU/10^6 PBMC) and CFSE-proliferation of >2 are considered positive (bolded). The prime-boost vaccination induced IL2 responses in 3 of 4 cats and IFNγ response in one. Larger responses were induced by MAP1 than individual peptides in culture.

Assay [3] has as its system CD3+CD8+ T cells from FIV-vaccinated cats. Nature of the assay: CFSE-proliferation, CD8+ T cells from FIV-vaccinated cats. The format is cell-based, cat. Particulars: prime 1x IWV, post-second MAP boost, peptide or MAP as culture stimulant, >2 positive.
From the text: (§2) FIGS. 32A and 32B. T-cell proliferation responses to FIV p24 peptide pools by vaccinated cats. […] (FIG. 32A) and CD3^+CD8^+ (FIG. 32B) T-cell proliferation responses are shown for prototype FIV-vaccinated cats. The FIV vaccinated cats were semi-inbred cats with blue, dark red, and pink/green bars from different MHC-lineage colonies. The semi-inbred cats with light pink and green bars are from the same […] lineage. Pools Fp9 and Fp14 are recognized by both HIV^+ subjects and vaccinated cats (i.e., evolutionarily conserved [EC] epitopes) but pools Fp3 and Fp4 are not recognized by HIV^+ subjects (i.e., non-EC epitopes). The IFNγ responses of these cats were either low or below the cut-off threshold of 50 SFU/1×10^6 PBMC. The peptides that stimulated the most proliferation responses: non-EC peptide Fp4-3 in pool Fp4 and EC peptide Fp14-1 in pool Fp14 were used in in vivo study below (FIG. 34).
(§3) FIGS. 33A-33C. IFNγ and T-cell proliferation responses to Fp9 and Fp14 by the FIV-vaccinated cats and FIV-infected cats. The T cells or PBMC from 32 FIV-vaccinated cats were stimulated with either Fp9 or Fp14 and evaluated for proliferation (FIG. 33A) or IFNγ (FIG. 33B) responses. In addition, the PBMC from 32 FIV-infected cats at 22-52 weeks of infection and 20 HIV-1 p24-immunized cats were tested for IFNγ responses to the same peptide pools (FIG. 33B). Three types of laboratory cats were used in these studies: semi-inbred line 1 (Semi-Inbred 1), semi-inbred line 2 (Semi-Inbred 2), and outbred cats (Outbred) from laboratory cat vendors. Semi-inbred cats have been inbred for 3-5 generations with defined feline leukocyte antigen (FLA) alleles and are divided into two FLA haplotype lines. FIV vaccine consisted of prototype dual-subtype FIV vaccine (Coleman et al. 2014). The insert in each panel defines the numbers of each type of cats as well as vaccination (Vac.) or infection (Infect.) status. The number of cat responders used varies between the analyses performed for the individual Fp14 peptides (FIG. 33C, left for IFNγ and right for proliferation).
as §1

Assay [4] relates to CD4+ T cells from FIV-vaccinated cats. Nature of the assay: CFSE-proliferation, CD4+ T cells from FIV-vaccinated cats. It is filed as cell-based, cat. Particulars: for Proliferation (CFSE^low) CD4^+ T cells: prime 1x IWV, post-second MAP boost, peptide or MAP as culture stimulant, >2 positive.
From the text: as §2, §3, §1

The subject of assay [5] is PBMC from FIV-vaccinated cats. Nature of the assay: IL2 ELISpot, PBMC from FIV-vaccinated cats (prototype vaccine, or prime plus MAP boosts). It is filed as cell-based, cat. Particulars: for IL2 (SFU): prime 1x IWV, post-second MAP boost, peptide or MAP as culture stimulant, >50 positive.
From the text: as §1

Assay [6] relates to PBMC from SIV-infected rhesus macaques. It is filed as cell-based, rhesus macaque. Particulars: macaques R395, R397, R416, R422.
[7] abbreviates: cat DVB, boost-1 MAP1b, boost-2 MAP1b.
Where [8] appears, read: cat DVD, boost-1 MAP1, boost-2 MAP1.
Where [9] appears, read: cat QVQ, boost-1 MAP1b, boost-2 MAP1b.
Where [10] appears, read: cat QVW, boost-1 MAP1, boost-2 MAP1.

As to “PTDLATLILAAPGSARVKRDQEQNTAEVKLYLK [MAP1, palmitated multiple antigenic peptide: Fp4-3/furin-sensitive-linker/Fp14-1]”, the “effect on in vitro FIV infection” value in assay [1] is “significant enhancement”. Further, the “IFNγ (SFU)” value was “[0] SFU/10^6 PBMC” in assay [2] (setting [7]), “[206] SFU/10^6 PBMC” in assay [2] (setting [8]), “[43] SFU/10^6 PBMC” in assay [2] (setting [9]) and “[0] SFU/10^6 PBMC” in assay [2] (setting [10]). For the same sequence, the “Proliferation (CFSE^low) CD8^+ T cells” value in assay [3] (setting [7]) is “[10]”; in assay [3] (setting [8]) it was “[9]”; in assay [3] (setting [9]), “[7]”; in assay [3] (setting [10]) it was “[6]”. The “Proliferation (CFSE^low) CD4^+ T cells” value is “[1]” in assay [4] (setting [7]), “[2]” in assay [4] (setting [8]), “[7]” in assay [4] (setting [9]) and “[7]” in assay [4] (setting [10]). The “IL2 (SFU)” value in assay [5] (setting [7]) is “[76] SFU/10^6 PBMC”; in assay [5] (setting [8]) it was “[296] SFU/10^6 PBMC”; in assay [5] (setting [9]), “[165] SFU/10^6 PBMC”; in assay [5] (setting [10]), “[9] SFU/10^6 PBMC”.

For the sequence PTDMATLIMAAPGCA [Fp4-3], the “effect on in vitro FIV infection” value in assay [1] is recorded as “significant enhancement; also recorded: significantly enhanced”. The “IFNγ responses in PBMC from FIV-vaccinated cats (in words)” value in assay [2] was “induced predominantly; also recorded: high levels”. In addition, the “IFNγ (SFU)” value in assay [2] (setting [7]) is reported as 0/0 SFU/10^6 PBMC; in assay [2] (setting [8]) it was 132 SFU/10^6 PBMC; in assay [2] (setting [9]), 0/0 SFU/10^6 PBMC; in assay [2] (setting [10]), 21 SFU/10^6 PBMC. Moreover, the “Proliferation (CFSE^low) CD8^+ T cells” value in assay [3] (setting [7]) is reported as 0; in assay [3] (setting [8]), 6; in assay [3] (setting [9]) it was 0; in assay [3] (setting [10]), 0. In addition, the “CD4+ T-cell proliferation in FIV-vaccinated cats (in words)” value in assay [4] is on record as “induced predominantly”. Moreover, the “Proliferation (CFSE^low) CD4^+ T cells” value is on record as 0 in assay [4] (setting [7]), 3 in assay [4] (setting [8]), 1/1 in assay [4] (setting [9]) and 0 in assay [4] (setting [10]). For the same sequence, the “IL2 responses in PBMC from FIV-vaccinated cats (in words)” value in assay [5] was “induced predominantly”. Besides, the “IL2 (SFU)” value in assay [5] (setting [7]) is 0 SFU/10^6 PBMC; in assay [5] (setting [8]), 95 SFU/10^6 PBMC; in assay [5] (setting [9]), 0 SFU/10^6 PBMC; in assay [5] (setting [10]), 0/0 SFU/10^6 PBMC.

On to KWRKLVDFRELNKR [H3-4], for which, in assay [6], the “reactivity of PBMC from individual infected macaques” value was “reacted”.

In the case of WRKLVDFRE [shorter peptide of HRT3], in assay [6], the “reactivity of PBMC from individual infected macaques” value is given as “reacted”.
